T1: Gap1p (Saccharomyces cerevisiae, UniProt P19145, A297V/K16R/K9R)
T1 sequence (P19145 1-602 K9R/K16R/A297V): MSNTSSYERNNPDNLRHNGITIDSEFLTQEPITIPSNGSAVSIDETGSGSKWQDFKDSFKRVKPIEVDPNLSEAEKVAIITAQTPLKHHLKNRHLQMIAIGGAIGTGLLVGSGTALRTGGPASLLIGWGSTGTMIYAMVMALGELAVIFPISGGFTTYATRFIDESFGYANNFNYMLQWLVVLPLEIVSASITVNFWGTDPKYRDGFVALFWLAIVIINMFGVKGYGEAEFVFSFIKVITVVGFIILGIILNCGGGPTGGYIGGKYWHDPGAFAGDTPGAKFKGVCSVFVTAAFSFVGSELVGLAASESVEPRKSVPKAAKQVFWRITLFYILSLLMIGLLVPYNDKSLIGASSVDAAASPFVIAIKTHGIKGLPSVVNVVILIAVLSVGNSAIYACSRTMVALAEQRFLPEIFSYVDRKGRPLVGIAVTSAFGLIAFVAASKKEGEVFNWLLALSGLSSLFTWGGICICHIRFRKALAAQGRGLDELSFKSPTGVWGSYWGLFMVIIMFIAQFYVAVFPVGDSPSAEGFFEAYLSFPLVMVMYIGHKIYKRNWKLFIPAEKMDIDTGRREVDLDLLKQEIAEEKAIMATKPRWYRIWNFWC

T2: Gap1p (Saccharomyces cerevisiae, UniProt P19145, K16R/K9R)
T2 sequence (P19145 1-602 K9R/K16R): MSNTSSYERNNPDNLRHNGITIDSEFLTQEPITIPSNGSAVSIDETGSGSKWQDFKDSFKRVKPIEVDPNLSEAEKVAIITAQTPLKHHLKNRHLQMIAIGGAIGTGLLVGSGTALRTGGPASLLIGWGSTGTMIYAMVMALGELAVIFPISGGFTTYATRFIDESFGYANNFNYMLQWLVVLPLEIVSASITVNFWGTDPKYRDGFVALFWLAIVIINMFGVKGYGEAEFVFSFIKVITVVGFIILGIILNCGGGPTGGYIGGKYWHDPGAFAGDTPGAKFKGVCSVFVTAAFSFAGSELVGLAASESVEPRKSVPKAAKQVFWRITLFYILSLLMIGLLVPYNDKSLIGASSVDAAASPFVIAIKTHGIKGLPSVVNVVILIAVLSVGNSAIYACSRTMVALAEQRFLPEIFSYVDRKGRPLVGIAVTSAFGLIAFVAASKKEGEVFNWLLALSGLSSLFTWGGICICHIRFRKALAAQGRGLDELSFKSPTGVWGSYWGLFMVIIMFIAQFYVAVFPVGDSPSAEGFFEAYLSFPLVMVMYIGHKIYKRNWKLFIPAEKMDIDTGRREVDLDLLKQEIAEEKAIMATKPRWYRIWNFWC

B1: Gap1p (Saccharomyces cerevisiae S288C; K16R/K9R) (protein)
chain: MSNTSSYERNNPDNLRHNGITIDSEFLTQEPITIPSNGSAVSIDETGSGSKWQDFKDSFKRVKPIEVDPNLSEAEKVAIITAQTPLKHHLKNRHLQMIAIGGAIGTGLLVGSGTALRTGGPASLLIGWGSTGTMIYAMVMALGELAVIFPISGGFTTYATRFIDESFGYANNFNYMLQWLVVLPLEIVSASITVNFWGTDPKYRDGFVALFWLAIVIINMFGVKGYGEAEFVFSFIKVITVVGFIILGIILNCGGGPTGGYIGGKYWHDPGAFAGDTPGAKFKGVCSVFVTAAFSFAGSELVGLAASESVEPRKSVPKAAKQVFWRITLFYILSLLMIGLLVPYNDKSLIGASSVDAAASPFVIAIKTHGIKGLPSVVNVVILIAVLSVGNSAIYACSRTMVALAEQRFLPEIFSYVDRKGRPLVGIAVTSAFGLIAFVAASKKEGEVFNWLLALSGLSSLFTWGGICICHIRFRKALAAQGRGLDELSFKSPTGVWGSYWGLFMVIIMFIAQFYVAVFPVGDSPSAEGFFEAYLSFPLVMVMYIGHKIYKRNWKLFIPAEKMDIDTGRREVDLDLLKQEIAEEKAIMATKPRWYRIWNFWC
B2: Gap1p (Saccharomyces cerevisiae S288C; A297V/K16R/K9R) (protein)
chain: MSNTSSYERNNPDNLRHNGITIDSEFLTQEPITIPSNGSAVSIDETGSGSKWQDFKDSFKRVKPIEVDPNLSEAEKVAIITAQTPLKHHLKNRHLQMIAIGGAIGTGLLVGSGTALRTGGPASLLIGWGSTGTMIYAMVMALGELAVIFPISGGFTTYATRFIDESFGYANNFNYMLQWLVVLPLEIVSASITVNFWGTDPKYRDGFVALFWLAIVIINMFGVKGYGEAEFVFSFIKVITVVGFIILGIILNCGGGPTGGYIGGKYWHDPGAFAGDTPGAKFKGVCSVFVTAAFSFVGSELVGLAASESVEPRKSVPKAAKQVFWRITLFYILSLLMIGLLVPYNDKSLIGASSVDAAASPFVIAIKTHGIKGLPSVVNVVILIAVLSVGNSAIYACSRTMVALAEQRFLPEIFSYVDRKGRPLVGIAVTSAFGLIAFVAASKKEGEVFNWLLALSGLSSLFTWGGICICHIRFRKALAAQGRGLDELSFKSPTGVWGSYWGLFMVIIMFIAQFYVAVFPVGDSPSAEGFFEAYLSFPLVMVMYIGHKIYKRNWKLFIPAEKMDIDTGRREVDLDLLKQEIAEEKAIMATKPRWYRIWNFWC

Assays:
[1] = target: T1, Gap1p; assay: competitive inhibition of […]-glycine uptake in yeast cells; type: cell-based
[2] = target: T2, Gap1p; assay: as above; type: cell-based
[3] = substrate: NCC(=O)O; assay: cells, lysate or membranes; type: cell-based, Saccharomyces cerevisiae; details: active site (amino acid binding pocket)

Molecule	Ki [1] [µM]	Ki [2] [µM]	Km [3] [µM]
NC(=O)NCCC[C@H](N)C(=O)O [citrulline]	~35.6	~36.6	–
B1	–	–	20.0 ± 5.3
B2	–	–	12.7 ± 1.12

— PMC3103407 (2011)
